Measurements taken from US10597388B2, “Pyridazinone herbicides” (FMC CORPORATION, priority 2014, dated 2020).

Columns and labels:
Assay in all cases: Test A greenhouse herbicide test, pre- and postemergence
Assay type in all cases: in vivo
corn (Zea mays) = conditions: Postemergence
Method in brief: (§1)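 Seeds sown in loam–sand blend got a preemergence directed soil spray of compound in non-phytotoxic solvent with surfactant. Postemergence treatment was given at 2–10 cm, one- to two-leaf stage. After ~10 d in greenhouse, injury was rated visually vs untreated controls, 0 (no effect) to 100 (complete control).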

[1] = test system: ragweed (common ragweed, Ambrosia elatior)
Method in brief: as §1

[2] = test system: foxtail, giant (giant foxtail, Setaria faberii)
Method in brief: as §1

[3] = test system: barnyardgrass (Echinochloa crus-galli)
Method in brief: as §1

[4] = test system: ryegrass, Italian (Italian ryegrass, Lolium multiflorum)
Method in brief: as §1

[5] = test system: pigweed (Amaranthus retroflexus)
Method in brief: as §1

[6] = test system: wheat (Triticum aestivum); conditions: Postemergence
Method in brief: as §1

kochia (Kochia scoparia) = test system: kochia (Kochia scoparia)
Method in brief: as §1

[7] = 125 g ai/ha, 0 to 100 scale where 0 is no effect and 100 is complete control
[8] = 500 g ai/ha, visual rating after approx. 10 d, 0 to 100 scale (0 no effect, 100 complete control)
[9] = Postemergence, 125 g ai/ha, 0 to 100 scale where 0 is no effect and 100 is complete control
[10] = Postemergence, 500 g ai/ha, visual rating after approx. 10 d, 0 to 100 scale (0 no effect, 100 complete control)
[11] = Preemergence, 125 g ai/ha, 0 to 100 scale where 0 is no effect and 100 is complete control
[12] = Preemergence, 500 g ai/ha, 0 to 100 scale where 0 is no effect and 100 is complete control
[13] = 125 g ai/ha, 0 to 100 scale, 0 no effect, 100 complete control
[14] = Postemergence, 125 g ai/ha, 0 to 100 scale, 0 no effect, 100 complete control
[15] = Preemergence, 125 g ai/ha, visual injury rating, 0 to 100 scale (0 no effect, 100 complete control), approx. 10 d

SMILES	Plant response rating, Corn (corn (Zea mays); [7])	Plant response rating, Corn (corn (Zea mays); [8])	Plant response rating, Ragweed [1, 9]	Plant response rating, Ragweed [1, 10]	Plant response rating, Ragweed [1, 12]	Plant response rating, Foxtail, Giant [2, 9]	Plant response rating, Foxtail, Giant [2, 10]	Foxtail, Giant plant response rating [2, 11]	Plant response rating, Foxtail, Giant [2, 12]	Plant response rating, Barnyardgrass [3, 9]	Plant response rating, Barnyardgrass [3, 10]	Barnyardgrass plant response rating [3, 11]	Plant response rating, Barnyardgrass [3, 12]	Plant response rating, Ryegrass, Italian [4, 10]	Plant response rating, Ryegrass, Italian [4, 12]	Plant response rating, Pigweed [5, 10]	Plant response rating, Pigweed [5, 12]	Plant response rating, Wheat [6, 8]	Plant response rating, Kochia (kochia (Kochia scoparia); [10])	Plant response rating, Kochia (kochia (Kochia scoparia); [12])	other results
COC(=O)Oc1c(OC)nn(C)c(=O)c1-c1c(C)ccc2ccccc12 [Compound 136]	30	30	100	100	90	90	100	80	100	20	100	10	80	100	100	100	100	30	100	90	Ragweed plant response rating [1, 11]: 80; Plant response rating, Ryegrass, Italian [4, 9]: 90; Ryegrass, Italian plant response rating [4, 11]: 90; Plant response rating, Pigweed [5, 9]: 90; Pigweed plant response rating [5, 11]: 100; Plant response rating, Wheat [6, 7]: 0; Plant response rating, Kochia (kochia (Kochia scoparia); [9]): 100; Kochia plant response rating (kochia (Kochia scoparia); [11]): 60
Cc1nn(C)c(=O)c(-c2ccc(Cl)c3ccccc23)c1O [Compound 139]	30	40	100	100	100	70	100	60	100	20	100	20	100	100	100	100	100	30	100	100	Plant response rating, Ryegrass, Italian [4, 9]: 100; Plant response rating, Pigweed [5, 9]: 60; Pigweed plant response rating [5, 11]: 100; Plant response rating, Wheat [6, 7]: 30; Plant response rating, Kochia (kochia (Kochia scoparia); [9]): 100; Kochia plant response rating (kochia (Kochia scoparia); [11]): 100
Cc1ccc2ccc(Cl)cc2c1-c1c(O)c(C)nn(C)c1=O [Compound 144]	60	90	100	100	100	100	100	100	100	100	100	90	100	100	100	100	100	100	100	100	Plant response rating, Ryegrass, Italian [4, 9]: 100; Plant response rating, Pigweed [5, 9]: 100; Pigweed plant response rating [5, 11]: 100; Plant response rating, Wheat [6, 7]: 90; Plant response rating, Kochia (kochia (Kochia scoparia); [9]): 100; Kochia plant response rating (kochia (Kochia scoparia); [11]): 100
COC(=O)Oc1c(C)nn(C)c(=O)c1-c1ccc(Br)c2ccccc12 [Compound 145]	20	60	100	100	100	20	80	30	90	20	90	20	90	100	100	100	100	30	100	100	Plant response rating, Ryegrass, Italian [4, 9]: 100; Plant response rating, Pigweed [5, 9]: 100; Pigweed plant response rating [5, 11]: 90; Plant response rating, Wheat [6, 7]: 20; Plant response rating, Kochia (kochia (Kochia scoparia); [9]): 100; Kochia plant response rating (kochia (Kochia scoparia); [11]): 90
CC(=O)Oc1c(Cl)nn(C)c(=O)c1-c1c(C)sc2ccc(C(F)(F)F)cc12 [Compound 152]	–	0	–	90	100	–	50	–	90	–	40	–	40	90	100	60	90	50	40	70	Plant response rating, Corn (corn (Zea mays); [13]): 0; Plant response rating, Ragweed [1, 14]: 70; Plant response rating, Ragweed [1, 15]: 80; Plant response rating, Foxtail, Giant [2, 14]: 30; Plant response rating, Foxtail, Giant [2, 15]: 40; Plant response rating, Barnyardgrass [3, 14]: 20; Plant response rating, Barnyardgrass [3, 15]: 40; Plant response rating, Ryegrass, Italian [4, 14]: 30; Plant response rating, Ryegrass, Italian [4, 15]: 90; Plant response rating, Pigweed [5, 14]: 50; Plant response rating, Pigweed [5, 15]: 90; Plant response rating, Wheat [6, 13]: 30; Plant response rating, Kochia (kochia (Kochia scoparia); [14]): 30; Plant response rating, Kochia (kochia (Kochia scoparia); [15]): 30
Cc1nn(C)c(=O)c(-c2c([N+](=O)[O-])ccc3ccccc23)c1O [Compound 165]	–	20	–	90	90	–	50	–	40	–	30	–	30	90	100	80	90	0	90	100	Plant response rating, Corn (corn (Zea mays); [13]): 0; Plant response rating, Ragweed [1, 14]: 90; Plant response rating, Ragweed [1, 15]: 50; Plant response rating, Foxtail, Giant [2, 14]: 20; Plant response rating, Foxtail, Giant [2, 15]: 10; Plant response rating, Barnyardgrass [3, 14]: 20; Plant response rating, Barnyardgrass [3, 15]: 10; Plant response rating, Ryegrass, Italian [4, 14]: 80; Plant response rating, Ryegrass, Italian [4, 15]: 40; Plant response rating, Pigweed [5, 14]: 80; Plant response rating, Pigweed [5, 15]: 100; Plant response rating, Wheat [6, 13]: 0; Plant response rating, Kochia (kochia (Kochia scoparia); [14]): 60; Plant response rating, Kochia (kochia (Kochia scoparia); [15]): 60
